Laboratory results reported in patent US5010005A, “Bio-oxidation of high alcohols in non-aqueous reaction media” (priority 1989, dated 1991).

Tests used:
[1] = target: T1, purified alcohol oxidase from P. pastoris (Komagataella phaffii, UniProt P04842); details: Patel et al; cited from earlier work
T1 sequence (P04842 2-663 limits assumed): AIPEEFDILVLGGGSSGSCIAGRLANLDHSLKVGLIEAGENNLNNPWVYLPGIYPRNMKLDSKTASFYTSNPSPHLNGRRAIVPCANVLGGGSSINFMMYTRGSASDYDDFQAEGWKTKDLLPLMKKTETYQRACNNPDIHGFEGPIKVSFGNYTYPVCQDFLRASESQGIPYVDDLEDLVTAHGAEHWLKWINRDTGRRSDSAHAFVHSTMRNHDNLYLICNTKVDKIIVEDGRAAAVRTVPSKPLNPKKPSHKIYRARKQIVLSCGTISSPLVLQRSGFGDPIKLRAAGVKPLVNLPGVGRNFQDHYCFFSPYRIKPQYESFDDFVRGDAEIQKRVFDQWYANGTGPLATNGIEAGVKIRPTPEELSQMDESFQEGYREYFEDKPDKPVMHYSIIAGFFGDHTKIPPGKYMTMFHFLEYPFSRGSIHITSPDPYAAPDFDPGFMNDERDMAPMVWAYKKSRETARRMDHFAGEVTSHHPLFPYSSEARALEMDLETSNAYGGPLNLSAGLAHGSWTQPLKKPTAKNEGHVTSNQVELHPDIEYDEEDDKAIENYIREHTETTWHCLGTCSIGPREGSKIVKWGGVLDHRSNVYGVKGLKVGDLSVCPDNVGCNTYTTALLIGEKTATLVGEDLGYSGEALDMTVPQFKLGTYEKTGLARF

[2] = test system: whole cells of Pichia pastoris; assay: Conversion of alcohols by whole cells of Pichia pastoris in aqueous reaction media; type: cell-based; details: for Oxidation by methanol-induced alcohol oxidase from P. pastoris: aqueous reaction media
Protocol: Pichia pastoris was obtained from the American Type Culture Collection, Rockville, Maryland, U.S.A. (ATCC 28485). The growth and maintenance medium consisted of: KH2 PO4 2.6 g/L; K2 HPO4 0.3 g/L; (NH4)2 SO4 1.5 g/L; MgSO4.7 ·H2 O 0.3 g/L; Difco yeast extract 1.9 g/L; FeSO4 ·7H2 O 1 mg/L; CuSO4 ·5H2 O 5 μg/L; H3 BO3 10 μg/L; MnSO4 ·H2 O 10 μg/L; ZnSO4 ·7H2 O 70 μg/L: NaMoO4 ·2H2 O 10 μg/L. After the medium was autoclaved and cooled, methanol (10 g/L) and a vitamin solution (J.P. van der Walt and A.E. van Kerken, Antonie van Leeuwenkoek 27: 81-90, 1961) (2 mL) were added. Growth of the organism was carried out in Erlenmeyer shake flasks at 30° C. on a reciprocal shaker (200 rpm). After 72 hrs growth, biomass was harvested by centrifugation (4000 g, 5 min) washed with 0.1 M phosphate buffer pH 8, and resuspended in 0.5 M Tris buffer (pH 8).
Unless otherwise stated, the reaction conditions for whole cell systems in aqueous solution (0.5M Tris pH 8) were as follows: 25 ml of the biomass suspension was dispensed into 125 mL serum vials and the substrate was added to the concentration listed in Table 1. The final biomass concentration was 5 g/L. The vials were flushed with oxygen, capped and sealed to prevent loss of reactants or products from the system. The vials were pressurized with oxygen (15 psig) and shaken (200 rpm) at 30° C. during the reaction. A sample was withdrawn following the reaction time listed in Table 1 and centrifuged (15000 g, 1 min) to remove biomass and stop the reaction. The supernatant liquid was diluted 1:1 with internal standard for gas chromatography. In some cases, a portion of the sample was extracted with 9 volumes of warm (50° C.) water, to solubilize insoluble separated product, mixed thoroughly by vortexing, and then diluted 1:1 with internal standard before assaying by gas chromatography. In all experiments the vials were regularly repressurized with oxygen throughout the reaction period.
The substrates and products were assayed using a Hewlett-Packard 5790A gas chromatograph equipped with a Chromasorb 101 packed column. The carrier gas was helium and the column was run isothermally at 220° C. For aqueous reaction systems the internal standard was isopropyl alcohol (20 g/L). In non-aqueous systems octanol (20 g/L) was dissolved in the appropriate solvent and used as internal standard.

alcohol oxidase = target: T2, alcohol oxidase (Komagataella phaffii, UniProt P04842); assay: Conversion of benzyl alcohol to benzaldehyde by purified alcohol oxidase in aqueous two phase systems; type: biochemical, Pichia pastoris; details: for Reaction Rate: benzyl alcohol 20 g/L
T2 construct: purchased Provesta Corp. (Bartlesville, Oklahoma)
T2 sequence (P04842 2-663 limits assumed): T1 sequence (P04842 2-663 limits assumed)
Protocol: To determine reaction rates, benzyl alcohol was presolubilized in the solvent of interest to a final concentration of 20 g/L unless otherwise specified. Alcohol oxidase and catalase were premixed in an activity ratio of 1300 U catalase activity per unit of alcohol oxidase activity. In some cases the enzyme mixture was diluted with 0.1 M phosphate buffer (pH 8) to determine the effect of changes in phase volume ratio. The enzyme mixture was then added to the solvent-substrate reaction fluid in a 125 mL serum vial. Reaction conditions were otherwise identical to those described above.
The purified alcohol oxidase was obtained from Provesta Corp. (Bartlesville, Oklahoma) and consisted of a concentrated (35 g/L) protein solution with a specific activity of 14.7 International Enzyme Units (IEU) per milligram of protein. One IEU is defined as the amount of enzyme which will oxidize one micomole of ethanol to acetaldehyde per minute at pH 7.5 at 25° C. The enzyme was stored frozen (-20° C.) until used. Beef liver catalase was obtained from Boehringer Mannheim Inc. as a 20 g/L suspension with a specific activity of 65000 U/mg. It was stored at 4° C.
Benzyl alcohol to benzaldehyde conversion was described in part a) except the percent aqueous phase was varied between 1and 5%.

[3] = test system: alkane-induced alcohol oxidase; details: Kemp et al; cited from earlier work
[4] = type: physicochemical
Protocol: The partitioning of benzyl alcohol and benzaldehyde between 0.1 M phosphate buffer and each solvent used were measured as follows: benzyl alcohol (10 g/L) and benzaldehyde (10 g/L) were dissolved in each of the solvents of interest. Ten millilitres of each solvent were then dispensed into a test tube containing 10 ml of 0.1 M phosphate buffer (pH 8). The tubes were capped, vortexed, and the mixture was allowed to equilibrate for 1 hr at 30° C. Both phases were then assayed for benzaldehyde and benzyl alcohol as described above. Partition coefficients were expressed as the ratio of the concentration of the solute of interest in the aqueous phase: the concentration of the same compound in the organic phase.
The partition coefficients were determined as in Example 2 but expressed as solute (g/L) in organic phase/solute (g/L) in aqueous phase (see Table 4).

[5] = test system: whole cells of Pichia pastoris; assay: Conversion of higher alcohols by whole cells of Pichia pastoris in two-phase (hexane/water) reaction system; type: cell-based; details: alcohol 30 g/L
Protocol: Growth of the organism was carried out in Erlenmeyer shake flasks at 30° C. on a reciprocal shaker (200 rpm). After 72 hrs growth, biomass was harvested by centrifugation (4000 g, 5 min) washed with 0.1 M phosphate buffer pH 8, and resuspended in 0.5 M Tris buffer (pH 8).
The method of conversion of higher alcohols using whole cells in a two-phase reaction system was as follows. One gram of Pichia pastoris cell paste (pellet resulting from a 10 minute, 9154 g centrifugation) was placed in a 125 ml serum vial and dispersed in 2 ml of H2 O (aqueous phase).
Then 48 ml of hexane containing the substrate (concentration in Table 1) were added to form the organic phase. The reaction was conducted as described above. Samples from the organic phase were withdrawn at the indicated times (Table 1) and the concentration of aldehyde product determined by gas chromatography.
The carrier gas was helium and the column was run isothermally at 220° C. For aqueous reaction systems the internal standard was isopropyl alcohol (20 g/L). In non-aqueous systems octanol (20 g/L) was dissolved in the appropriate solvent and used as internal standard.

P. pastoris = assay: Bio-oxidation of hexanol to hexanal by P. pastoris in two-phase aqueous (5% v/v)/organic systems; type: cell-based, Pichia pastoris; details: for Hexanal produced: aqueous phase 5% v/v, 24 h incubation

## CC(N)CO (centres unmarked) [2-amino-1-propanol]
[1]
  Oxidation by purified alcohol oxidase: unable to oxidize

## NCCO [2-amino-ethanol]
[1]
  Oxidation by purified alcohol oxidase: unable to oxidize

## OCc1ccccc1 [benzyl alcohol]
[2]; Komagataella pastoris, read-out: Reduction of reaction rate by substrate inhibition
  inhibition at 20000 µg/mL: ~60%
[2]; whole cells in aqueous reaction fluid
  Substrate concentration at which strong inhibition of the reaction is observed: greater than 20 g/L
Alcohol oxidase; enzyme 1.0 U/mL, time 2.0 h
  Cumulative benzaldehyde production Concn.: 2.1 g/L
Alcohol oxidase; enzyme 1.0 U/mL, time 4.0 h
  Cumulative benzaldehyde production Concn.: 2.8 g/L
Alcohol oxidase; enzyme 1.0 U/mL, time 8.0 h
  Cumulative benzaldehyde production Concn.: 17 g/L
Alcohol oxidase; enzyme 2.5 U/mL, time 2.0 h
  Cumulative benzaldehyde production Concn.: 5.1 g/L
Alcohol oxidase; enzyme 2.5 U/mL, time 4.0 h
  Cumulative benzaldehyde production Concn.: 6.3 g/L
Alcohol oxidase; enzyme 5.0 U/mL, time 2.0 h
  Cumulative benzaldehyde production Concn.: 9.9 g/L
Alcohol oxidase; enzyme 5.0 U/mL, time 4.0 h
  Cumulative benzaldehyde production Concn.: 13 g/L
Alcohol oxidase; enzyme 7.5 U/mL, time 2.0 h
  Cumulative benzaldehyde production Concn.: 13 g/L
Alcohol oxidase; enzyme 7.5 U/mL, time 4.0 h
  Cumulative benzaldehyde production Concn.: 19 g/L
Alcohol oxidase; enzyme 10 U/mL, time 2.0 h
  Cumulative benzaldehyde production Concn.: 15 g/L
Alcohol oxidase; enzyme 10 U/mL, time 4.0 h, fed-batch addition of benzyl alcohol
  Cumulative benzaldehyde production Concn.: 22 g/L
Alcohol oxidase; enzyme 15 U/mL, time 2.0 h
  Cumulative benzaldehyde production Concn.: 17 g/L
Alcohol oxidase; enzyme 15 U/mL, time 4.0 h, fed-batch addition of benzyl alcohol
  Cumulative benzaldehyde production Concn.: 32 g/L
Alcohol oxidase; enzyme 15 U/mL, time 8.0 h, fed-batch addition of benzyl alcohol
  Cumulative benzaldehyde production Concn.: 45 g/L
Alcohol oxidase; enzyme concentration 1.0 U/mL (0.06 g/L)
  Initial rate of benzaldehyde production: 1.4 g/L h
Alcohol oxidase; enzyme concentration 2.5 U/mL (0.16 g/L)
  Initial rate of benzaldehyde production: 3.4 g/L h
Alcohol oxidase; enzyme concentration 5.0 U/mL (0.31 g/L)
  Initial rate of benzaldehyde production: 6.3 g/L h
Alcohol oxidase; enzyme concentration 7.5 U/mL (0.47 g/L)
  Initial rate of benzaldehyde production: 8.6 g/L h
Alcohol oxidase; enzyme concentration 10 U/mL (0.63 g/L)
  Initial rate of benzaldehyde production: 10.3 g/L h
Alcohol oxidase; enzyme concentration 15 U/mL (0.94 g/L)
  Initial rate of benzaldehyde production: 11.7 g/L h
Alcohol oxidase; reaction fluid Chloroform
  Relative Reaction Rate: 0.03
  Reaction Rate: 0.07 g/L h
Alcohol oxidase; reaction fluid Ether
  Relative Reaction Rate: 0.19
  Reaction Rate: 0.39 g/L h
Alcohol oxidase; reaction fluid Ethylacetate
  Relative Reaction Rate: 0.04
  Reaction Rate: 0.09 g/L h
Alcohol oxidase; reaction fluid Hexane
  Relative Reaction Rate: 1.0
  Reaction Rate: 2.08 g/L h
Alcohol oxidase; reaction fluid Toluene
  Relative Reaction Rate: 0.49
  Reaction Rate: 1.01 g/L h
Alcohol oxidase; two phase system, hexane
  Substrate concentration up to which optimum reaction rates (85% of Vmax) could be maintained: up to 54 g/L

## OC1CCCCC1 [cyclohexanol]
[1]
  Oxidation by purified alcohol oxidase: unable to oxidize

## CCCCCCCCCCO [decanol]
[2]
  Oxidation by methanol-induced alcohol oxidase from P. pastoris: unable to oxidize

## CCCCCCCCCCCCO [dodecanol]
[3]
  Substrate specificity of alkane-induced alcohol oxidase: optimum activity

## CCCCCCCO [heptanol]
[2]
  Oxidation by methanol-induced alcohol oxidase from P. pastoris: unable to oxidize

## CCCCCC=O [hexanal]
[4]
  Partition coefficient: greater than unity

## CCCCCCO [hexanol]
[2]; alcohol 30 g/L, reaction time 12 h
  Aldehyde concentration, aqueous: 5.0 g/L
[5]; reaction time 6 h
  Aldehyde concentration, 2-phase: 10.6 g/L
[5]; reaction time 24 h
  Aldehyde concentration, 2-phase: 12.4 g/L
P. pastoris; Chloroform
  Hexanal produced: 1.0 g/L
P. pastoris; Ether
  Hexanal produced: 2.7 g/L
P. pastoris; Ethyl acetate
  Hexanal produced: 2.4 g/L
P. pastoris; Hexane
  Hexanal produced: 8.7 g/L
P. pastoris; Toluene
  Hexanal produced: 2.4 g/L
P. pastoris; water-hexane two-phase system
  Hexanol concentration completely oxidized: up to 10 g/L

## CCCCCCCCCO [nonanol]
[2]
  Oxidation by methanol-induced alcohol oxidase from P. pastoris: unable to oxidize

## CCCCCCCCO [octanol]
[2]
  Oxidation by methanol-induced alcohol oxidase from P. pastoris: unable to oxidize

## CC(C)(C)O [tert butanol]
[1]
  Oxidation by purified alcohol oxidase: unable to oxidize

## CCCCCCCCCCCO [undecanol]
[2]
  Oxidation by methanol-induced alcohol oxidase from P. pastoris: unable to oxidize
